From patent US8044098B2, “Use of hydroxybenzoic acids and their esters and analogues for preventing or treating virus infection” (Shenghua Guangzhou Pharmaceutical Science & Technology Co., …, priority 2005, dated 2011)

Columns and labels:
flat warts = assay: Clinical use in treating flat warts; format: in vivo, human
Experimental: 5 g propyl gallate was mixed with 40 ml 1,2-propylene glycol and heated to dissolve the ingredients. Then 20 ml Tween-80 and 3 ml azone were added into the mixture and mixed well. Sterile distilled water was added to the mixture to reach a final volume of 100 ml.
Clinically, flat warts were seen as slightly raised, smooth, tan or flesh colored bumps ranging in size from 1-5 mm. They typically appeared on the face, backs of hands and arms.
32 male and 28 female patients of 15-46 years old, with the average age of 23 years old, were selected for the test. These patients have had flat warts for any time from 2 weeks to 2 years. Some of the patients have tried other treatment methods for the warts. But no one had undertaken any treatment for the warts in the past 4 weeks. And no one had taken any medicine in the past 2 weeks.
The patients were randomly divided into two groups of 30 patients each. One group was treated with propyl gallate micro emulsion, the other group with 5% imiquimod cream (made by Sichuan Ming Xin Pharmaceutical Co.), which is a medicine often used for treating flat warts. The test samples were applied to the affected areas of the patient groups three times a day, in the morning, at noon and night. The treatment period was 20 days. The treatment effect was tracked for one year.
“Recovered”: all warts had disappeared or faded, the skin became flat, no new warts appeared;
“Obvious Effect”: more than 70% of the warts had disappeared, the bottom of the warts had shrunk, the top of the warts had flattened;
“Improved”: more than 30% of the warts had disappeared, the top of the warts had flattened;
“Not Effective”: less than 30% of the warts had disappeared, no change to the warts, or some new warts appeared.

[1] = tested on: secretion of HBeAg by 2.2.15 cells; assay: Inhibition of secretion of HBeAg by Hepatitis B 2.2.15 cell line; format: cell-based, HBV; settings: 1 μmol/ml
Description: (§1) Hepatitis B 2.2.15 cell line was transfected by HBV DNA (purchased from Institute of Biochemistry and Cell Biology of Shanghai Institute for Biological Sciences or the National Center for Drug Screening) and used as the cell model for screening anti-HBV drug compounds (See Chinese Journal Of Integrated Traditional and Western Medicine on Liver Diseases, 2004, 14(3): 158). The cell culture medium DMEM (GIBCO Company), bovine serum (Hangzhou Siji Qing Biochemical Manufacturer), G418 (GIBCO Company), 3-(4,5-dimethylthiazol-2-yl)-2,5-diphenyltetrazoliumbromide (Sigma), HBsAg and HBeAg diagnostic kit (Shanghai Kehua Bio-engineering Co., Ltd).
(§2) The test compounds listed in Table 3 below were dissolved in a mixture containing 20 ml 1,2-propylene glycol and 15 ml Tween-80 and diluted with sterile saline water to 2 μmol/ml of the test compound. Then it was mixed with the cell culture medium at equal volume to obtain a solution containing 1 μmol/ml of the tested compound. Cells at the concentration of 1×10^5 cells per milliliter were inoculated to a 24-well plate at 1 ml/well. Supernatant from the cell culture mixture was collected three days later for testing.

cervical erosion = assay: Clinical use of propyl gallate in treating cervical erosion; format: in vivo, human; settings: for total effectiveness rate: recovered or improved
Experimental: 4 g propyl gallate was mixed with 40 ml 1,2-propylene glycol and heated to let the ingredients to dissolve. Sterile distilled water was added to the mixture to reach a final volume of 100 ml. 28 married female patients of 22-50 years old were selected for the test. […] The patients were also tested for the absence of vaginal yeast infection or trichomoniasis or sexually transmitted diseases. The patients were randomly divided into two groups of 14 patients each. One group was treated with propyl gallate micro emulsion, the other group with interferon-α suppository (made by Wuhan Tian'ao Pharmaceutical Co.). The treatment was started three days after a patient's last menstrual period. The propyl gallate micro emulsion was applied to the mucosa surfaces with cervical erosion every other day for 30 days. Out of the group treated with propyl gallate, 7 patients had the medicine applied to them by medical professionals at a hospital, the other 7 patients applied the medicine by themselves at home. On the other hand, an interferon-α suppository was used by each patient in the control group once a day before sleep for 30 days. “Recovered”: the cervical skin became smooth, cervical erosion had disappeared; […] The effectiveness of treatment was calculated based on the number of patients that were “recovered” or “improved”. Among patients of the propyl gallate group who were treated at the hospital, the “recovered” rate was about 81%, the “improved” rate was about 15%, and the total effectiveness rate was about 96%. Among patients of the propyl gallate group who were treated at home, the “recovered” rate was about 32%, the “improved” rate was about 55%, and the total effectiveness rate was about 87%. Among patients treated with interferon-α suppository, the “recovered” rate was about 22%, the “improved” rate was about 57%, and the total effectiveness rate was about 79%.

condyloma acuminata = assay: Clinical use in treating condyloma acuminata; format: in vivo, human
Description: Soft hyperplasia with nipple or cauliflower shaped or other shaped warts were found around the skin of the cunnus or anus. The result from 5% acetate acid white test was positive.
Patients selected for the clinical observation must meet the above standards. Plus the diameter of their skin lesions should equal to or be less than 1 cm. […] Patients who had vaginal yeast, trichomonas, bacteria infection or other complications, chronic diseases, serious liver or kidney diseases or women in pregnancy or lactation were not selected. Treatments to women would not be conducted in their menstrual periods.
50 qualified patients were selected and randomly divided into five groups to be tested with p-hydroxybenzoic acid, gallic acid, ethyl p-hydroxybenzoate, propyl gallate and recombinant human interferon α-2β gel, respectively. The samples of p-hydroxybenzoic acid, gallic acid, ethyl p-hydroxybenzoate and propyl gallate were prepared as described in Example 1. The patients were treated with the test sample to the affected areas three times a day, in the morning, at noon and night. The samples were applied to cover the warts and the patients were required to leave the treated areas exposed and not to move for 20 minutes.
Observation time: 8 days. Patients not cured after 8 days would continue to use the test samples for another 12 weeks, and their prognosis was followed during the 12-week period.
Observed items: the location, shape, size and number of warts were carefully observed and recorded before the treatment.
“Recovered”: all skin lesions had disappeared;
“Obvious Effect”: more than 70% of the skin lesions had disappeared;
“Improved”: more than 30% of the skin lesions had disappeared;
“Not Effective”: less than 30% of the skin lesions had disappeared or the original skin lesions didn't change or even enlarged.

[2] = tested on: secretion of HBsAg by 2.2.15 cells; assay: Inhibition of secretion of HBsAg by Hepatitis B 2.2.15 cell line; format: cell-based, HBV; settings: 1 μmol/ml
Description: as §1, §2

[3] = number of patients of 30 per group, three times a day, 20 days
[4] = 2.2.15 cells, supernatant collected three days later
[5] = patients treated at home (7), every other day for 30 days

## CCCOC(=O)c1cc(O)c(O)c(O)c1 [Propyl gallate]
Flat warts; 20 days treatment
  effectiveness in treating flat warts compared with 5% imiquimod cream: more effective
Flat warts; followed for a year
  recurrence of the warts in recovered patients: none had recurrence
Flat warts; number of patients of 30 per group, applied three times a day, 20 days
  Recovered: 22
Flat warts; [3]
  Improved: 2
  Not Effective: 1
  Obvious Effect: 5
Flat warts; patients recovered or with obvious effect, of 30 per group
  Effective Rate: 90%
[1]
  effect on the secretion of HBeAg by the 2.2.15 cells (in words): had inhibition effect
  inhibition of HBeAg secretion compared with gallic acid and 3,4-dihydroxybenzoic acid: more effective
[1]; [4]
  HBeAg Inhibition Rate: 12.04%
Cervical erosion; [5]
  “improved” rate: about 55%
  “recovered” rate: about 32%
Cervical erosion; patients treated at home (7)
  total effectiveness rate: about 87%
Cervical erosion; patients treated at the hospital (7), 4% micro emulsion every other day for 30 days
  “recovered” rate: about 81%
Cervical erosion; patients treated at the hospital (7), every other day for 30 days
  “improved” rate: about 15%
Cervical erosion; patients treated at the hospital (7)
  total effectiveness rate: about 96%
Cervical erosion; patients treated at the hospital, P<0.05
  effectiveness compared with interferon-α suppository: significantly better
Condyloma acuminata; condyloma acuminata patients, 10% micro emulsion
  treatment effect compared to recombinant human interferon α-2β gel: more apparent treatment effect
Condyloma acuminata; number of patients (50 patients in five groups), 10% micro emulsion on affected areas three times a day, all skin lesions disappeared
  Recovered, 1-4 days: 7
Condyloma acuminata; number of patients, 10% micro emulsion three times a day, all skin lesions disappeared
  Recovered, 5-8 days: 1
Condyloma acuminata; number of patients, more than 70% of the skin lesions disappeared
  Obvious Effect, 1-4 days: 2
[2]
  effect on the secretion of HBsAg by the 2.2.15 cells (in words): had inhibition effect
  inhibition of HBsAg secretion compared with gallic acid and 3,4-dihydroxybenzoic acid: more effective
[2]; [4]
  HBsAg Inhibition rate: 18.83%
